Laboratory results from ChEMBL document CHEMBL1140428, “Human P2Y(6) receptor: molecular modeling leads to the rational design of a novel agonist based on a unique conformational preference” (J Med Chem, 2005).
pEC50: −log10 of the molar value.

Target: P2Y purinoceptor 6 (Homo sapiens, UniProt Q15077)
Assay: Stimulation of phospholipase C in 1321N1 astrocytoma cells transfected with human P2Y6 receptor
Type: cell-based
Conditions: for pEC50: read-out: EC50; call rule not given here

Chain of P2Y purinoceptor 6 (Q15077 whole entry): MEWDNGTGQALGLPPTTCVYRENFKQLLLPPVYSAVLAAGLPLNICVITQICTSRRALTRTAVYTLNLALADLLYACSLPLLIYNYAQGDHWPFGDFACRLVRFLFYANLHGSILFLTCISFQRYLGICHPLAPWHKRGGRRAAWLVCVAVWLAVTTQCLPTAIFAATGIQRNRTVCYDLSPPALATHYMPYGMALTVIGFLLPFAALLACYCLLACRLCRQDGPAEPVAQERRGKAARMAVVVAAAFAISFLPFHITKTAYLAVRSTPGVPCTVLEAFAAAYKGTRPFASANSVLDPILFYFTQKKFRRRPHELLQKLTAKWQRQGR

Row | pEC50 | EC50 | Structure (SMILES)
1 | 5.76 |  | O=c1ccn([C@H]2C[C@H](O)[C@@H](COP(=O)(O)OP(=O)(O)O)O2)c(=O)[nH]1
2 | 7.07 |  | O=c1ccn([C@@H]2O[C@H](COP(=O)(O)OP(=O)(O)O)[C@@H](O)[C@H]2O)c(=O)[nH]1 [URIDINE_DIPHOSPHATE]
3 | 6.64 |  | O=c1ccn([C@@]23C[C@H](O)[C@@H](COP(=O)(O)OP(=O)(O)O)[C@@H]2C3)c(=O)[nH]1
4 |  | Not Active | O=c1ccn([C@H]2[C@H](O)[C@H](O)[C@@]3(COP(=O)(O)OP(=O)(O)O)C[C@H]23)c(=O)[nH]1
